In ChEMBL document CHEMBL5143705, “Design, synthesis and structure-activity relationship of 4-(1,1,1,3,3,3-hexafluoro-2-hydroxyisoprop-2-yl)phenylsilane derivatives as liver X receptor agonists” (Bioorg Med Chem, 2022) one finds Activity and EC50 data, which are given here for 19 molecules.

Common to all, as to format: cell-based
Series [1] is described as follows: Toxicity in human HEK293 cells assessed as reduction in cell viability at 10 uM. As to conditions: hek293, 10 µM.
The target of series [2] is T1, Oxysterols receptor LXR-alpha (Homo sapiens, UniProt Q13133).
T1 sequence (Q13133 whole entry): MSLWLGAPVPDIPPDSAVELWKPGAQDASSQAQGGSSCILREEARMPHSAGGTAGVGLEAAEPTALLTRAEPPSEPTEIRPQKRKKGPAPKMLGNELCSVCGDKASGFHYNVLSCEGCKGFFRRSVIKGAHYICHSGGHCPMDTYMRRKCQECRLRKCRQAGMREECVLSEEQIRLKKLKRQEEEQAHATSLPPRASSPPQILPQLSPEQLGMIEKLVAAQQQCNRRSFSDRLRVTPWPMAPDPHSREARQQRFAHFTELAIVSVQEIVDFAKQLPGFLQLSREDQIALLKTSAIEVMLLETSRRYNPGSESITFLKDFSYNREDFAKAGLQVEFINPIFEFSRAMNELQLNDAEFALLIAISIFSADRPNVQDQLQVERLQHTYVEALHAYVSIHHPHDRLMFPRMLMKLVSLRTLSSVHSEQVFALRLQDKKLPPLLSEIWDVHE
Nature of the series: Agonist activity against human LXRalpha expressed in human HEK293T cells co-expressing CMX-GAL4N-hLXRalpha incubated for 24 hrs by reporter gene assay.

For series [3], the target named is T2, Oxysterols receptor LXR-beta (Homo sapiens, UniProt P55055).
T2 sequence (P55055 whole entry): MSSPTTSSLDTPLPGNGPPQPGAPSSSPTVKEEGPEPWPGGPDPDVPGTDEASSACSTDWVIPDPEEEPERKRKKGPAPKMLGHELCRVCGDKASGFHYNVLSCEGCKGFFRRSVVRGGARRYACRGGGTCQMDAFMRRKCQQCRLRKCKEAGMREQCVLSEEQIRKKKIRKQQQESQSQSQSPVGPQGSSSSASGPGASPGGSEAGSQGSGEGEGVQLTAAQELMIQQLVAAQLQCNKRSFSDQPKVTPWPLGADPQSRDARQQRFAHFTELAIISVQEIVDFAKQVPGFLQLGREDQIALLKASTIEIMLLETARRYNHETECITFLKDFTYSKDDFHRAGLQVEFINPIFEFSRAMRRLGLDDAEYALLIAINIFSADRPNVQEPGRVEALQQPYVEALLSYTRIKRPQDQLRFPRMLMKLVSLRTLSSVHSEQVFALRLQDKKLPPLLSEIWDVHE
Nature of the series: Agonist activity against human LXRbeta expressed in human HEK293T cells co-expressing CMX-GAL4N-hLXRbeta incubated for 24 hrs by reporter gene assay. A general note: A reporter such as luciferase makes a cellular process visible.

Series [4] deals with T3, Oxysterols receptor LXR-alpha (Homo sapiens) (UniProt Q13133).
T3 sequence (whole entry): T1 sequence (Q13133 whole entry)
Kind of series: Partial agonist activity against human LXRalpha in human HEK293T cells incubated for 24 hrs by reporter gene assay relative to T0901317.

Series [5] deals with T4, Oxysterols receptor LXR-beta (Homo sapiens) (UniProt P55055).
T4 sequence (whole entry): T2 sequence (P55055 whole entry)
Nature of the series: Partial agonist activity against human LXRbeta in human HEK293T cells incubated for 24 hrs by reporter gene assay T0901317.

As usually defined, the EC50 is the concentration needed to bring the measured effect to its halfway point. Read a low EC50 as a more potent agent. Take `OC(c1ccc([Si](Cc2ccccc2)(Cc2ccccc2)Cc2ccccc2)cc1)(C(F)(F)F)C(F)(F)F`: the Activity result was “Non-Toxic” in series [1], 19% in series [4] and 27% in series [5]. In addition, the concentration giving a half-maximal response (EC50) was 4980 nM in series [2] and 1980 nM in series [3].

For `C[Si](C)(c1ccc(C(O)(C(F)(F)F)C(F)(F)F)cc1)C1CCCCC1`, the Activity entry in series [1] is “Non-Toxic”. Moreover, the EC50 in series [2] amounted to 1430 nM; in series [3], 740 nM.

Turning to `CCC[Si](CCC)(CCC)c1ccc(C(O)(C(F)(F)F)C(F)(F)F)cc1`, in series [1], the Activity result is on record as “Non-Toxic”. The concentration giving a half-maximal response (EC50) in series [2] stood at 430 nM; in series [3] it was 590 nM.

Take `C[Si](C)(C)[Si](C)(C)c1ccc(C(O)(C(F)(F)F)C(F)(F)F)cc1`: the Activity entry in series [1] is listed as “Non-Toxic”. Further, the EC50 in series [2] stood at 580 nM; in series [3], 510 nM.

For the molecule `C[Si](O)(c1ccccc1)c1ccc(C(O)(C(F)(F)F)C(F)(F)F)cc1` (stereo not given), in series [1], the Activity result is listed as “Non-Toxic”. Besides, the figures for the concentration giving a half-maximal response (EC50) in series [2] and in series [3] were 8500 nM and 5030 nM, respectively.

`CC(O)[Si](C)(C)c1ccc(C(O)(C(F)(F)F)C(F)(F)F)cc1` (stereo not given): the Activity result in series [1] was “Non-Toxic”. Moreover, the half-maximal effective concentration (EC50) was 4450 nM in series [2] and 3340 nM in series [3].

Regarding `C=C[Si](C)(C)c1ccc(C(O)(C(F)(F)F)C(F)(F)F)cc1`, the Activity result in series [1] is “Non-Toxic”. In addition, the 50% effective concentration (EC50) was determined as 2060 nM in series [2] and 1800 nM in series [3].

As for `O=S(=O)(c1ccccc1)N(CC(F)(F)F)c1ccc(C(O)(C(F)(F)F)C(F)(F)F)cc1` [T091317], the Activity result in series [1] is reported as “Non-Toxic”.

With `C[Si](C)(C)c1ccc(C(O)(C(F)(F)F)C(F)(F)F)cc1`, in series [1], the Activity entry is listed as “Non-Toxic”. Also, the EC50 in series [2] came to 3120 nM; in series [3] it was 1410 nM.

As to `C=CC[Si](C)(C)c1ccc(C(O)(C(F)(F)F)C(F)(F)F)cc1`, the Activity entry in series [1] was “Non-Toxic”. For the same molecule, the concentration giving a half-maximal response (EC50) in series [2] was 500 nM; in series [3] it was 450 nM.

Regarding `CCCC[Si](C)(C)c1ccc(C(O)(C(F)(F)F)C(F)(F)F)cc1`, the Activity entry in series [1] was “Non-Toxic”. The figures for the EC50 in series [2] and in series [3] were 2350 nM and 1700 nM, respectively.

As for `CC[Si](C)(CC)c1ccc(C(O)(C(F)(F)F)C(F)(F)F)cc1`, in series [1], the Activity result is “Non-Toxic”. For the same molecule, the EC50 in series [2] is 590 nM; in series [3], 690 nM.

For the molecule `CC[Si](CC)(CC)c1ccc(C(O)(C(F)(F)F)C(F)(F)F)cc1`, the Activity result in series [1] is recorded as “Non-Toxic”. Also, the 50% effective concentration (EC50) amounted to 620 nM in series [2] and 530 nM in series [3].

As to `C[Si](C)(Cc1ccccc1)c1ccc(C(O)(C(F)(F)F)C(F)(F)F)cc1`, in series [1], the Activity result is “Non-Toxic”. The concentration giving a half-maximal response (EC50) in series [2] was 940 nM; in series [3], 720 nM.

For the molecule `CC(C)(C)[Si](C)(C)c1ccc(C(O)(C(F)(F)F)C(F)(F)F)cc1`, the Activity result in series [1] is reported as “Non-Toxic”. Besides, the EC50 in series [2] was 1130 nM; in series [3], 650 nM.

In the case of `C[Si](C)(CCCO)c1ccc(C(O)(C(F)(F)F)C(F)(F)F)cc1`, in series [1], the Activity result is listed as “Non-Toxic”. The EC50 turned out to be 4450 nM in series [2] and 4030 nM in series [3].

`C[Si](C)(CCO)c1ccc(C(O)(C(F)(F)F)C(F)(F)F)cc1`: the Activity entry in series [1] is listed as “Non-Toxic”. For the same molecule, the concentration for a half-maximal effect (EC50) was determined as 1460 nM in series [2] and 1730 nM in series [3].

On to `C[Si](C)(c1ccccc1)c1ccc(C(O)(C(F)(F)F)C(F)(F)F)cc1`, for which, in series [1], the Activity entry is on record as “Non-Toxic”. Further, the figures for the EC50 in series [2] and in series [3] were 2150 nM and 740 nM, respectively.

For `CN(c1ccc(C(O)(C(F)(F)F)C(F)(F)F)cc1)S(=O)(=O)c1ccccc1`, the Activity result in series [1] is reported as “Non-Toxic”.
